Measured values from patent US20160237067A1, “SUBSTITUTED PHENYLALANINE DERIVATIVES” (BAYER PHARMA AKTIENGESELLSCHAFT, priority 2013, published 2016).
Counter-ions that a name gives are not always drawn.

Key:
[1] = target: T1, human factor XIa (Homo sapiens, UniProt P03951); test: Measurement of FXIa inhibition (fluorogenic peptide substrate Boc-Glu(OBzl)-Ala-Arg-AMC); format: biochemical; settings: factor XIa from Kordia 0.45 nM; 15 min preincubation; 30 min at 22° C.
T1 construct: purchased Kordia
Procedure: The factor XIa inhibition of the substances according to the invention is determined using a biochemical test system which utilizes the reaction of a peptidic factor XIa substrate to determine the enzymatic activity of human factor XIa. Here, factor XIa cleaves from the peptic factor XIa substrate the C-terminal aminomethylcoumarin (AMC), the fluorescence of which is measured. The determinations are carried out in microtitre plates.
Test substances are dissolved in dimethyl sulphoxide and serially diluted in dimethyl sulphoxide (3000 μM to 0.0078 μM; resulting final concentrations in the test: 50 μM to 0.00013 μM). In each case 1 μl of the diluted substance solutions is placed into the wells of white microtitre plates from Greiner (384 wells). Subsequently, the following are added successively: 20 μl of assay buffer (50 mmol/l Tris buffer pH 7.4; 100 mmol/l sodium chloride; 5 mmol/l calcium chloride; 0.1% bovine serum albumin) and 20 μl of factor XIa from Kordia (0.45 nM in assay buffer). After 15 min of incubation, the enzyme reaction is started by addition of 20 μl of the factor XIa substrate Boc-Glu(OBzl)-Ala-Arg-AMC dissolved in assay buffer (10 μM in assay buffer) from Bachem, the mixture is incubated at room temperature (22° C.) for 30 min and fluorescence is then measured (excitation: 360 nm, emission: 460 nm). The measured emissions of the test batches with test substance are compared to those of control batches without test substance (only dimethyl sulphoxide instead of test substance in dimethyl sulphoxide), and IC50 values are calculated from the concentration/activity relationships.

[2] = test system: human and animal plasma; test: Determination of anticoagulatory activity: activated partial thromboplastin time (aPTT) in plasma; format: biochemical; settings: C.K. Prest kit, 37° C., 3 minutes incubation, plasma species of Table B not stated
Procedure: The anticoagulatory activity of the test substances is determined in vitro in human and animal plasma (for example mouse, rat, rabbit, pig and dog plasma). To this end, blood is drawn off in a mixing ratio of sodium citrate/blood of 1:9 using a 0.11 molar sodium citrate solution as receiver. Immediately after the blood has been drawn off, it is mixed thoroughly and centrifuged at about 4000 g for 15 minutes. The supernatant is pipetted off.
The activated partial thromboplastin time (aPTT) is determined in the presence of varying concentrations of test substance or the corresponding solvent using a commercial test kit (C.K. Prest from Diagnostica Stago). The test compounds are incubated with the plasma and the PTT reagent (cephalin, kaolin) at 37° C. for 3 minutes. Coagulation is then started by addition of a 25 mM aqueous calcium chloride solution, and the time when coagulation occurs is determined. The concentration of test substance which brings about a 1.5-fold extension of the aPTT is determined Activity data from this test are listed in Table B below: […]

T1 sequence (P03951 388-625 limits assumed): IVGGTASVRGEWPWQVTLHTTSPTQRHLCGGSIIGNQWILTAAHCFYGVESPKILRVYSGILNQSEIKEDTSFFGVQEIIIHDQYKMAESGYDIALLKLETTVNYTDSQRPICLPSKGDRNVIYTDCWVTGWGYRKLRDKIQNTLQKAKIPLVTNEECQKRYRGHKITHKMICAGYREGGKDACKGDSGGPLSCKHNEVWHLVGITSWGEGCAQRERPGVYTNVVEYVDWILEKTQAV
T1 sequence (P03951 19-387 partner limits assumed): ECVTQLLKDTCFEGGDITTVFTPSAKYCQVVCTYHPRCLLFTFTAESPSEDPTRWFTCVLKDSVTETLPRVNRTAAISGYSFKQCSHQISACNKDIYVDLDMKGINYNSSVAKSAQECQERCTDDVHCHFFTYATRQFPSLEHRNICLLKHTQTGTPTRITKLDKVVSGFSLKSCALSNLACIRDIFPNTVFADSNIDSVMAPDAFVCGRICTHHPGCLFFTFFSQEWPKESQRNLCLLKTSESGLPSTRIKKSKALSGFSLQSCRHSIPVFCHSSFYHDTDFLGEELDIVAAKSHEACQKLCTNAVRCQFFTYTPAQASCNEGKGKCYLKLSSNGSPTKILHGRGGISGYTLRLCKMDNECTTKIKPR

| SMILES | IC50 [1] | aPTT (concentration of test substance which brings about a 1.5-fold extension of the aPTT) [2] |
| --- | --- | --- |
| Cc1ccc(S(=O)(=O)N(C)C)cc1-c1ccc(C[C@H](NC(=O)[C@H]2CC[C@H](CN)CC2)C(=O)Nc2ccc(-c3nnc(Cl)[nH]3)cc2)cc1 [Example 3, trans-4-(Aminomethyl)-N-{(2S)-1-{[4-(5-chloro-4H-1,2,4-triazol-3-yl)phenyl]amino}-3-[5′-(dimethylsulphamoyl)-2′-methylbiphenyl-4-yl]-1-oxopropan-2-yl}cyclohexanecarboxamide hydrochloride] | 2.8 nM | 0.19 µmol/L |
| Cc1ccc(S(=O)(=O)N2CCCC2)cc1-c1ccc(C[C@H](NC(=O)[C@H]2CC[C@H](CN)CC2)C(=O)Nc2ccc3[nH]c(=O)[nH]c3c2)cc1 [Example 7, trans-4-(Aminomethyl)-N-{(2S)-3-[2′-methyl-5′-(pyrrolidin-1-ylsulphonyl)biphenyl-4-yl]-1-oxo-1-[(2-oxo-2,3-dihydro-1H-benzimidazol-5-yl)amino]propan-2-yl}cyclohexanecarboxamide hydrochloride] | 11 nM | 0.39 µmol/L |
| Cc1ccc(C(=O)NC2CCNCC2)cc1-c1ccc(C[C@H](NC(=O)[C@H]2CC[C@H](CN)CC2)C(=O)Nc2ccc(-c3nn[nH]n3)cc2)cc1 [Example 9, hydrochloride] | 7.4 nM | 0.08 µmol/L |
| CCN(CC)CCNC(=O)c1ccc(C)c(-c2ccc(C[C@H](NC(=O)[C@H]3CC[C@H](CN)CC3)C(=O)Nc3ccc(-c4nn[nH]n4)cc3)cc2)c1 [Example 10, 4′-[(2S)-2-({[trans-4-(Aminomethyl)cyclohexyl]carbonyl}amino)-3-oxo-3-{[4-(2H-tetrazol-5-yl)phenyl]amino}propyl]-N-[2-(diethylamino)ethyl]-6-methylbiphenyl-3-carboxamide hydrochloride] | 8 nM | 0.38 µmol/L |
| Cc1ccc(C(=O)N[C@@H]2CCNC2)cc1-c1ccc(C[C@H](NC(=O)[C@H]2CC[C@H](CN)CC2)C(=O)Nc2ccc(-c3nn[nH]n3)cc2)cc1 [Example 11, 4′-[(2S)-2-({[trans-4-(Aminomethyl)cyclohexyl]carbonyl}amino)-3-oxo-3-{[4-(2H-tetrazol-5-yl)phenyl]amino}propyl]-6-methyl-N-[(3R)-pyrrolidin-3-yl]biphenyl-3-carboxamide hydrochloride] | 6.9 nM | 0.26 µmol/L |
| Cc1cc(C)c(-c2ccc(C[C@H](NC(=O)[C@H]3CC[C@H](CN)CC3)C(=O)Nc3ccc(-c4nn[nH]n4)cc3)cc2)cc1C(=O)N(C)C [Example 39, 4′-[(2S)-2-({[trans-4-(Aminomethyl)cyclohexyl]carbonyl}amino)-3-oxo-3-{[4-(2H-tetrazol-5-yl)phenyl]amino}propyl]-N,N,4,6-tetramethylbiphenyl-3-carboxamide hydrochloride] | 3.3 nM | – |
| CNC(=O)c1ccc(C)c(-c2ccc(C[C@H](NC(=O)[C@H]3CC[C@H](CN)CC3)C(=O)Nc3ccc(-c4nnc(C(F)(F)C(F)(F)C(=O)O)[nH]4)cc3)cc2)c1 [Example 41, 3-{5-[4-({(2S)-2-({[trans-4-(Aminomethyl)cyclohexyl]carbonyl}amino)-3-[2′-methyl-5′-(methylcarbamoyl)biphenyl-4-yl]propanoyl}amino)phenyl]-4H-1,2,4-triazol-3-yl}-2,2,3,3-tetrafluoropropanoic acid hydrochloride] | 2.8 nM | – |

The next lines start with results.

| IC50 [1] | SMILES | aPTT (concentration of test substance which brings about a 1.5-fold extension of the aPTT) [2] |
| --- | --- | --- |
| 0.5 nM | Cc1ccc(S(=O)(=O)N(C)C)cc1-c1ccc(C[C@H](NC(=O)[C@H]2CC[C@H](CN)CC2)C(=O)Nc2ccc(-c3nnn[nH]3)cc2)cc1 [Example 1, trans-4-(Aminomethyl)-N-[(2S)-3-[5′-(dimethylsulphamoyl)-2′-methylbiphenyl-4-yl]-1-oxo-1-{[4-(1H-tetrazol-5-yl)phenyl]amino}propan-2-yl]cyclohexanecarboxamide hydrochloride] | 0.16 µmol/L |
| 0.1 nM | Cc1ccc(S(=O)(=O)N2CCOCC2)cc1-c1ccc(C[C@H](NC(=O)[C@H]2CC[C@H](CN)CC2)C(=O)Nc2ccc(-c3nnn[nH]3)cc2)cc1 [Example 2, trans-4-(Aminomethyl)-N-[(2S)-3-[2′-methyl-5′-(morpholin-4-ylsulphonyl)biphenyl-4-yl]-1-oxo-1-{[4-(1H-tetrazol-5-yl)phenyl]amino}propan-2-yl]cyclohexanecarboxamide hydrochloride] | 0.22 µmol/L |
| 3.1 nM | NC[C@H]1CC[C@H](C(=O)N[C@@H](Cc2ccc(-c3cccc(S(N)(=O)=O)c3)cc2)C(=O)Nc2ccc(-c3nnn[nH]3)cc2)CC1 [Example 4, trans-4-(Aminomethyl)-N-[(2S)-1-oxo-3-(3′-sulphamoylbiphenyl-4-yl)-1-{[4-(1H-tetrazol-5-yl)phenyl]amino}propan-2-yl]cyclohexanecarboxamide hydrochloride] | 0.16 µmol/L |
| 11 nM | CN1CCN(C(=O)c2cccc(-c3ccc(C[C@H](NC(=O)[C@H]4CC[C@H](CN)CC4)C(=O)Nc4ccc(-c5nnn[nH]5)cc4)cc3)c2)CC1 [Example 5, trans-4-(Aminomethyl)-N-[(2S)-3-{3′-[(4-methylpiperazin-1-yl)carbonyl]biphenyl-4-yl}-1-oxo-1-{[4-(1H-tetrazol-5-yl)phenyl]amino}propan-2-yl]cyclohexanecarboxamide hydrochloride] | 0.37 µmol/L |
| 14 nM | NC[C@H]1CC[C@H](C(=O)N[C@@H](Cc2ccc(-c3cccc(OCCN4CCOCC4)c3)cc2)C(=O)Nc2ccc(-c3nn[nH]n3)cc2)CC1 [Example 6, trans-4-(Aminomethyl)-N-[(2S)-3-{3′-[2-(morpholin-4-yl)ethoxy]biphenyl-4-yl}-1-oxo-1-{[4-(2H-tetrazol-5-yl)phenyl]amino}propan-2-yl]cyclohexanecarboxamide hydrochloride] | 0.54 µmol/L |
| 6.9 nM | CCOC(=O)c1cccc(-c2ccc(C[C@H](NC(=O)[C@H]3CC[C@H](CN)CC3)C(=O)Nc3ccc(-c4nn[nH]n4)cc3)cc2)c1F [Example 8, Ethyl 4′-[(2S)-2-({[trans-4-(aminomethyl)cyclohexyl]carbonyl}amino)-3-oxo-3-{[4-(2H-tetrazol-5-yl)phenyl]amino}propyl]-2-fluorobiphenyl-3-carboxylate hydrochloride] | 0.51 µmol/L |
| 8.1 nM | Cc1ccc(C(=O)N2CCNCC2)cc1-c1ccc(C[C@H](NC(=O)[C@H]2CC[C@H](CN)CC2)C(=O)Nc2ccc(-c3nn[nH]n3)cc2)cc1 [Example 12, trans-4-(Aminomethyl)-N-[(2S)-3-[2′-methyl-5′-(piperazin-1-ylcarbonyl)biphenyl-4-yl]-1-oxo-1-{[4-(2H-tetrazol-5-yl)phenyl]amino}propan-2-yl]cyclohexanecarboxamide hydrochloride] | 0.49 µmol/L |
| 17 nM | NC[C@H]1CC[C@H](C(=O)N[C@@H](Cc2ccc(-c3cccc(C(=O)NC4CCNCC4)c3)cc2)C(=O)Nc2ccc(-c3nn[nH]n3)cc2)CC1 [Example 13, 4′-[(2S)-2-({[trans-4-(Aminomethyl)cyclohexyl]carbonyl}amino)-3-oxo-3-{[4-(2H-tetrazol-5-yl)phenyl]amino}propyl]-N-(piperidin-4-yl)biphenyl-3-carboxamide hydrochloride] | 0.28 µmol/L |
| 15 nM | CCN(CC)CCNC(=O)c1cccc(-c2ccc(C[C@H](NC(=O)[C@H]3CC[C@H](CN)CC3)C(=O)Nc3ccc(-c4nn[nH]n4)cc3)cc2)c1 [Example 14, 4′-[(2S)-2-({[trans-4-(Aminomethyl)cyclohexyl]carbonyl}amino)-3-oxo-3-{[4-(2H-tetrazol-5-yl)phenyl]amino}propyl]-N-[2-(diethylamino)ethyl]biphenyl-3-carboxamide hydrochloride] | 0.35 µmol/L |
